Experimental data reported in US20110293545A1, “Dolichos Biflorus Extract For Use In Cosmetic Skin Treatment” (Cognis IP Management GmbH, priority 2009, published 2011).

Assays:
Type in all cases: cell-based
COL5A2 = experiment: qRT-PCR of collagen V encoding gene COL5A2 in human dermal fibroblasts; details: 10 ng/ml, with carrier protein; 24 h incubation; relative to EF1α
Experimental: (§1) This test was performed to evaluate the stimulation efficacy of a Dolichos biflorus extract according to example 3 on the expression of collagen V encoding genes in human fibroblasts. As 2 genes are responsible of the production of collagen V, namely the genes COL5A1 and COL5A2, both gene expressions were analysed.
(§2) Human dermal fibroblasts (obtained from plastic surgery) were inoculated in standard DMEM medium of cell culture with 10% FCS (Invitrogen). When cell confluence was arisen, the substances to be tested were introduced in new DMEM without FCS. Fibroblasts were incubated during 24 h with the test substances, then total RNA was extracted using a commercial extraction kit (Nucleospin™ RNA II, Macherey-Nagel™, France). Quantification and quality control of total RNA were performed by measuring […] at 260 and 280 nm. […]
(§3) The reverse transcription step was performed with a reverse transcription (RT) kit (ThermoScript™ RT-PCR System, Invitrogen, France) using 0.1 μg of total RNA in a 20 μl final volume. The quantitative PCRs were performed on 2 μl of the RT mix with specific primers in a 20 μl final volume, according to the manufacturer's informations (LightCycler®480 SYBR Green I Master, Roche, France). […] Results, expressed as percentage RNA compared to the control, are the mean of three independent assays (table 3). […]

COL5A1 = experiment: qRT-PCR of collagen V encoding gene COL5A1 in human dermal fibroblasts; details: 10 ng/ml, with carrier protein; 24 h incubation; relative to EF1α
Experimental: as §1, §2, §3

collagen I = experiment: Stimulation of collagen I production (ELISA of released collagen peptides, Bradford cell proteins); details: dose 20 μg/ml; 72 hours; human dermal fibroblasts
Experimental: The purpose of this assay was the evaluation of the potential of Dolichos biflorus seed extract to increase the level of collagen I. Human dermal fibroblasts (from skin of aesthetic surgery) were cultivated in growth medium (DMEM Invitrogen N° 41965-039 with FCS at 10% (v/v)) for 24 hours at 37° C. […] The amount of cellular proteins was determined on cell homogenate (in a solution of NaOH 0.1 N) by the Bradford's method. The quantity of synthesized type I collagen was determined by measuring the amount of released collagen peptides in cell culture medium by an ELISA method (kit […]° from Osteomedical). They are expressed in % protein referring to the control (=standard medium with cells).

Question: “TGF-β1: growth factor, positive reference; strong transcription activator of collagen genes; added with a carrier protein” was tested. Which “RNA level of COL5A2” value (COL5A2) did it give?
Answer: The value was 171 %/control.

Question: What about the “RNA level of COL5A1” value (COL5A1) of the same molecule?
Answer: Its value is 567 %/control.

Question: Which Cell proteins (collagen I) does the source give for `O=C1O[C@H]([C@@H](O)CO)C(O)=C1O` [Vitamin C] here?
Answer: Its Cell proteins is 77.3 % protein against control.

Question: And the “Released type I collagen” value (collagen I)?
Answer: The value was 118.3 % protein against control.
